ChEMBL document CHEMBL1201862, “PubChem BioAssay data set” (2004)
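Values below derive from 48-hour exposures of cells grown in 96-well plates, with endpoints linearly interpolated between the two concentrations bracketing the appropriate inhibition level. GI50 = concentration required for 50% inhibition of growth.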 Calls of active or inactive are those of the source. No stated cut-off is given here; in the data, active = GI50 up to about 1.1 µM and inactive = higher.

How the values were obtained:
Test in all cases: inhibition of tumour cell growth, NCI panel, 48 h
COLO 205 = test system: COLO 205
ACHN = test system: ACHN
IGROV-1 = test system: IGROV-1
K562 = test system: K562
MDA-MB-435 = test system: MDA-MB-435
MDA-N = test system: MDA-N
CAKI-1 = test system: CAKI-1
MDA-MB-231 = test system: MDA-MB-231
SR = test system: SR
EKVX = test system: EKVX
RXF 393 = test system: RXF 393
U-251 = test system: U-251
SW-620 = test system: SW-620
UO-31 = test system: UO-31
786-0 = test system: 786-0
CCRF-CEM = test system: CCRF-CEM
OVCAR-4 = test system: OVCAR-4
OVCAR-8 = test system: OVCAR-8
KM-20L2 = test system: KM-20L2

Measured: GI50

C(=C\c1cccc(/C=C/c2ccccn2)n1)/c1ccccn1
inactive: COLO 205 39.8 µM | ACHN 35.2 µM | IGROV-1 61.8 µM | K562 47.8 µM | MDA-MB-435 83.8 µM | MDA-N 68.2 µM | CAKI-1 50.7 µM | MDA-MB-231 > 100 µM | SR 62.2 µM | EKVX > 100 µM | RXF 393 62.1 µM | U-251 > 100 µM | SW-620 59.4 µM | UO-31 26.2 µM | 786-0 > 100 µM | CCRF-CEM 37 µM | OVCAR-4 60.4 µM | OVCAR-8 36.2 µM

CC(=O)OC1COC(n2nc(/C=C/c3ccc(Cl)cc3)c(=O)n(/N=C/c3ccccc3)c2=S)C(OC(C)=O)C1OC(C)=O (stereo unspecified)
inactive: COLO 205 > 100 µM | ACHN > 100 µM | IGROV-1 > 100 µM | K562 > 100 µM | MDA-MB-435 > 100 µM | MDA-N > 100 µM | CAKI-1 > 100 µM | MDA-MB-231 > 100 µM | SR > 100 µM | EKVX > 100 µM | RXF 393 > 100 µM | U-251 > 100 µM | SW-620 > 100 µM | UO-31 > 100 µM | 786-0 > 100 µM | CCRF-CEM > 100 µM | OVCAR-4 > 100 µM | OVCAR-8 > 100 µM

CN(C)c1ccc(/C=C/C(=O)c2ccccc2)cc1Br
inactive: KM-20L2 25.1 µM | COLO 205 18.3 µM | ACHN 22.8 µM | IGROV-1 20.2 µM | K562 20.6 µM | CAKI-1 16.3 µM | EKVX > 100 µM | U-251 18.5 µM | SW-620 19.9 µM | UO-31 18.5 µM | 786-0 17.2 µM | CCRF-CEM 20.5 µM | OVCAR-4 15.5 µM | OVCAR-8 23.2 µM

N#CC(NC12CC3CC(CC(C3)C1)C2)c1ccccc1 (stereo unspecified)
inactive: COLO 205 > 100 µM | ACHN > 100 µM | IGROV-1 > 100 µM | K562 > 100 µM | MDA-MB-435 > 100 µM | MDA-N > 100 µM | CAKI-1 > 100 µM | MDA-MB-231 > 100 µM | SR > 100 µM | EKVX > 100 µM | RXF 393 > 100 µM | U-251 > 100 µM | SW-620 > 100 µM | UO-31 > 100 µM | 786-0 > 100 µM | CCRF-CEM 20.8 µM | OVCAR-4 > 100 µM | OVCAR-8 > 100 µM

COc1cccc2c(Nc3ccc(S(=O)(=O)NC(C)=O)cc3)c3ccc([N+](=O)[O-])cc3nc12
inactive: COLO 205 28.5 µM | ACHN 26.2 µM | IGROV-1 11.3 µM | K562 22 µM | MDA-MB-435 31.6 µM | MDA-N 36.6 µM | CAKI-1 65.6 µM | MDA-MB-231 21.2 µM | SR 4.15 µM | EKVX 40.6 µM | RXF 393 97.9 µM | U-251 23.7 µM | SW-620 45.7 µM | UO-31 12.4 µM | 786-0 33.3 µM | CCRF-CEM 55.5 µM | OVCAR-4 97.7 µM | OVCAR-8 27.7 µM

Cn1c(CCC#N)nc2ccc(Br)cc2c1=O
inactive: KM-20L2 > 100 µM | COLO 205 > 100 µM | ACHN > 100 µM | IGROV-1 > 100 µM | K562 > 100 µM | CAKI-1 > 100 µM | EKVX > 100 µM | RXF 393 > 100 µM | U-251 > 100 µM | SW-620 > 100 µM | UO-31 > 100 µM | 786-0 > 100 µM | CCRF-CEM 51.9 µM | OVCAR-4 > 100 µM | OVCAR-8 > 100 µM
